Data set [1] deals with αSyn. The conditions noted are these: cited from earlier work. The text has this:
While the aggregation processes are well studied the same is not true for disaggregation. […] EGCG binding to the C-terminus stabilises the αSyn monomeric state and shifts the monomer-fibril equilibrium towards the less aggregated forms. […] Human Cyp40 is a multidomain protein consisting of the catalytic isomerase domain followed by four tetratricopeptide repeats. Through mutagenesis, the isomerase domain was identified as being responsible for this disaggregating activity[15] as is also shown here for CypD. CypD also interacts directly with the Alz ...

Data set [2] concerns αSyn. The conditions noted are these: cited from earlier work. An excerpt: (§1) Proteins currently known to dissociate amyloid fibrils do so in either an ATP-dependent or –independent manner. Examples of the former include Hsp70, whereas the latter mode can be found in Cyclophilin 40 (Cyp40)[14],[15]. […] The effects of Cyp40 on the tau and αSyn fibrils were attributed to its peptidyl-prolyl isomerase activity. […] An emerging picture is that agents that prevent aggregation can also dissemble amyloid fibrils. […] Human Cyp40 is a multidomain protein consisting of the catalytic isomerase domain followed by four tetratricopeptide repeats. Through mutagenesis, the isomerase domain was identified as being responsible for this disaggregating activity[15] as is also shown here for CypD. CypD also interacts directly with the Alz ...
This is another data set of the same source.

Data set [3] has as its system human insulin and human lysozyme. The conditions noted are these: cited from earlier work. An excerpt:
An emerging picture is that agents that prevent aggregation can also dissemble amyloid fibrils.

Data set [4] deals with T1, CypD (Homo sapiens, UniProt P30405).
T1 construct: His tag (TEV-cleavable, pETM11 vector) (cleaved yes); made in house; host or cells: E. coli BL21 (DE3)
As to the kind of experiment: Isothermal titration calorimetry, binding to CypD wild-type. To be noted: 10°C, 20 mM phosphate, 20 mM NaCl, pH 6.5. For orientation: ITC needs no label: the signal is the heat of the interaction.
Experimental: All ITC experiments were carried out at 10°C on an ITC200 Microcalorimeter (GE Healthcare). The buffer used was 20 mM phosphate, 20 mM NaCl at pH 6.5. Each experiment consisted of an initial injection of 0.5 µL, followed by fifteen 2.39 µL injections before a final injection of 1.89 µL. Control experiments were performed whereby each compound was titrated into buffer and buffer titrated into CypD. In both cases no heat exchange was detected, confirming that there was appropriate match of buffer conditions with no indication of dilution effects. The titration experiments were performed in duplicates, with 50-100 µM CypD in the cell and 500-2000 µM peptides in the syringe. For some of the titrations, data from two runs were concatenated to achieve a saturating isotherm. All data was analysed using the Origin®7 (OriginLab, Northampton, MA) software programme.

Data set [5] concerns the target T1, CypD. As to the kind of experiment: 1H-15N HSQC NMR of 15N-CypD, binding site identification. To be noted: 15N-CypD HSQC, 20-fold excess peptide; 20 mM phosphate, 20 mM NaCl, pH 6.5.
Experimental: NMR spectra were acquired on Bruker Avance III 800 MHz spectrometer equipped with [^1H, ^15N, ^13C]-cryoprobes. […] The same buffer was used for obtaining the ^1H-^15N spectra of ^15N-labelled αSyn at 298 K. Experiments using ^15N-labelled αSyn fibrils were performed at 288 K. ^2H/^15N-labelled CypD was used to make the complex with intact αSyn in order to achieve the optimal conditions to observe shift perturbations, taking into account the size of the complex (~32kD). Backbone ^1H and ^15N resonances of CypD and αSyn were assigned using standard triple resonance to those assigned by ^13C, ^15N, ^1H-triple resonance HNCA, HN(CO)CA, HNCO, HN(CA)CO, CBCA(CO)NH, and CBCANH experiments.
In the analyses of the chemical shift perturbation, the chemical-shift difference was expressed as: Δδ = {(ΔH)^2 + (0.15ΔN)^2}^1/2. Values of Δδ greater than 0.07 were considered significant.
The target of data set [6] is T1, CypD. As to the kind of experiment: Isomerisation substrate test by NMR. It counts as biochemical.
Experimental: (§2) NMR spectra were acquired on Bruker Avance III 800 MHz spectrometer equipped with [^1H, ^15N, ^13C]-cryoprobes. 1D and 2D spectra of αSyn peptide were performed using 1 mM peptide dissolved in 20 mM phosphate, 20 mM NaCl pH 6.5 at 298 K or 283 K. Resonance assignments of the proton spectra of αSyn peptide were obtained using ^1H-^1H 2D TOCSY (mixing time 60 ms) and NOESY spectra (mixing time 350 ms). […] The same buffer was used for obtaining the ^1H-^15N spectra of ^15N-labelled αSyn at 298 K. Experiments using ^15N-labelled αSyn fibrils were performed at 288 K. ^2H/^15N-labelled CypD was used to make the complex with intact αSyn in order to achieve the optimal conditions to observe shift perturbations, taking into account the size of the complex (~32kD). Backbone ^1H and ^15N resonances of CypD and αSyn were assigned using standard triple resonance to those assigned by ^13C, ^15N, ^1H-triple resonance HNCA, HN(CO)CA, HNCO, HN(CA)CO, CBCA(CO)NH, and CBCANH experiments.
Data set [7] has as its system amyloid-β (Aβ). To be noted: cited from earlier work.
Text: as §1

In data set [8] the test system is tau. To be noted: cited from earlier work. An excerpt:
Proteins currently known to dissociate amyloid fibrils do so in either an ATP-dependent or –independent manner. Examples of the former include Hsp70, whereas the latter mode can be found in Cyclophilin 40 (Cyp40)[14],[15]. […] The effects of Cyp40 on the tau and αSyn fibrils were attributed to its peptidyl-prolyl isomerase activity.

Data set [9] relates to αSynC peptide (cis-trans isomerisation by CypD). As to the kind of experiment: NMR detection of αSynC cis-trans isomerisation (1D line-broadening, 2D NOESY exchange cross-peaks). It counts as biochemical. The conditions noted are these: αSynC 1 mM, CypD 50uM, CsA 100uM, 283 K.
Experimental: as §2
Data set [10] concerns αSyn effects on mitochondria / MPTP. The conditions noted are these: cited from earlier work. The text has this:
Cyclophilin D (CypD) is a mitochondrial peptidyl-prolyl isomerase that has been implicated to be involved in the mechanisms of many diseases, although it is best known as a regulator for the opening of the mitochondria permeability transition pore (MPTP). […] Co-immunoprecipitation experiments ...

Entries after “also recorded” stand apart in the source; their conditions may differ.

T1 sequence (P30405 43-207): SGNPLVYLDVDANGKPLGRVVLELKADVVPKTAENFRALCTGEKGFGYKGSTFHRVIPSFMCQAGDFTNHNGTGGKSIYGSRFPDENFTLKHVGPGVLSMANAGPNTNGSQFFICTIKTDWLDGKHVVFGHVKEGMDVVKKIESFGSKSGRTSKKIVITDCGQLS

With Cyclophilin A: Cyclophilin A, the “binding to αSyn” value in data set [1] is on record as “bind to αSyn, also at the C-terminus as well as to the preNAC sequence”.
Take `C=CC[C@@H]1/C=C(\C)C[C@H](C)C[C@H](OC)[C@H]2O[C@@](O)(C(=O)C(=O)N3CCCC[C@H]3C(=O)O[C@H](/C(C)=C/[C@@H]3CC[C@@H](O)[C@H](OC)C3)[C@H](C)[C@@H](O)CC1=O)[C@H](C)C[C@@H]2OC` [FK506]: in data set [2], the “αSyn aggregation (FKBP inhibitor)” value is “prevent αSyn aggregation”.
As for “FKBP12: peptidyl-prolyl isomerase immunophilin protein belonging to the FKBP family, cytoplasmic”, the αSyn aggregation result in [2] is on record as “promoted αSyn aggregation”. Also, the “binding to αSyn” value in [1] is reported as “shown to bind αSyn”.
With `CC(CN1c2ccccc2Sc2ccccc21)N(C)C` (centres unmarked) [promethazine], the “aggregation of human insulin and human lysozyme” value in data set [3] is “prevents the aggregation of human insulin and human lysozyme; also recorded: depolymerises preformed fibrils”.
For “GVATVAEKTKEQVTN [αSynM, synthetic peptide 51–65 of αSyn, >98% pure]”, in data set [4], the “binding to CypD (ITC, in words)” value was “too weak to yield a reliable binding isotherm; also recorded: binds much more weakly”. In data set [5], the “binding to CypD by NMR (in words)” value is “only slightly shifted from the positions in the free protein with minimal broadening observed for selected peaks; also recorded: very weak binding”. For the same compound, in data set [6], the “interaction with CypD / isomerisation substrate” value is listed as “not an isomerisation substrate of CypD”.
As to “Cyp40: cytosolic peptidyl prolyl isomerase, co-chaperone to Hsp90”, the dissociation of fibrils result is “not amyloid-β (Aβ) fibrils” in data set [7] (Aβ fibrils); “dissociate tau, and αSyn” in [2] (αSyn fibrils); “dissociate tau” in data set [8].
On to `CC12CC3CC(C)(C1)CC(N)(C3)C2` [memantine], for which the “Aβ aggregation and preformed Aβ fibrils” value in data set [7] is given as “inhibits Αβ aggregation; also recorded: disassembles preformed Aβ fibrils”.
epigallocatechin-3-gallate [EGCG]: the “dissociation of αSyn aggregates” value in data set [2] is “dissociates αSyn aggregates”. The “binding to C-terminus of monomeric αSyn” value in [1] was “binds to the C-terminus of monomeric αSyn”.
For cyclosporine A [CsA], the “effect of CsA on exchange cross-peaks (CypD isomerase activity)” value is “exchange crosspeaks disappear” in data set [9] and “disappearance of the exchange cross-peaks” in data set [9] (listed as Cyclosporine A). In data set [10], the “rescue of αSyn effects on mitochondria” value is “can be rescued”.

The values are drawn from PMC7311461, “Cyclophilin D binds to the acidic C-terminus region of α-Synuclein and affects its aggregation characteristics” (Scientific Reports, 2020).
